Test results as given in ChEMBL document CHEMBL1201862, “PubChem BioAssay data set” (2004).
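Tested at 5 concentrations; 48 h exposure; 96-well plates; endpoints linearly interpolated, else capped at highest concentration. GI50 = concentration required for 50% inhibition of growth.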 The source made the active and inactive calls. Rule as the data show it: active = GI50 up to about 1.1 µM and inactive = higher.

Experiments:
Test in all cases: NCI tumour cell line growth inhibition, 48 h
SW-620 = test system: SW-620
SF-295 = test system: SF-295
Malme-3M = test system: Malme-3M
U-251 = test system: U-251
TK-10 = test system: TK-10
SK-MEL-2 = test system: SK-MEL-2
M14 = test system: M14
HCT-116 = test system: HCT-116
UACC-257 = test system: UACC-257
XF498 = test system: XF498
HT-29 = test system: HT-29
IGROV-1 = test system: IGROV-1
CCRF-CEM = test system: CCRF-CEM
HCT-15 = test system: HCT-15
SK-MEL-28 = test system: SK-MEL-28
OVCAR-5 = test system: OVCAR-5
SNB-19 = test system: SNB-19
K562 = test system: K562
LOX IMVI = test system: LOX IMVI
MOLT-4 = test system: MOLT-4

Compound | GI50 (SW-620) | GI50 (SF-295) | GI50 (Malme-3M) | GI50 (U-251) | GI50 (TK-10) | GI50 (SK-MEL-2) | GI50 (M14) | GI50 (HCT-116) | GI50 (UACC-257) | GI50 (XF498) | GI50 (HT-29) | GI50 (IGROV-1) | GI50 (CCRF-CEM) | GI50 (HCT-15) | GI50 (SK-MEL-28) | GI50 (OVCAR-5) | GI50 (SNB-19) | GI50 (K562) | GI50 (LOX IMVI) | GI50 (MOLT-4)
CC(=O)Nc1ccc(C2CC(c3ccc([N+](=O)[O-])cc3)=Nc3ccccc3S2)cc1 (stereo not given) | 16.8 µM (inactive) | 18.6 µM (inactive) | 18.3 µM (inactive) | 15.2 µM (inactive) | 23.9 µM (inactive) | 17.9 µM (inactive) | 13.5 µM (inactive) | 9.75 µM (inactive) | 15.7 µM (inactive) | 13.3 µM (inactive) | 15.4 µM (inactive) | 25.8 µM (inactive) | 13.8 µM (inactive) | 17.1 µM | 18.7 µM (inactive) | 22.2 µM (inactive) | 22.7 µM (inactive) | 4.73 µM (inactive) | 15.5 µM (inactive) | 11.8 µM (inactive)
CCN(CC)CCCC(C)NC(=O)c1ccc2c(c1)C(=O)c1ccccc1C2=O (stereo not given) | 13.6 µM (inactive) | 21.4 µM (inactive) | 12.9 µM (inactive) | 20.1 µM (inactive) | 24.2 µM (inactive) | 19.5 µM (inactive) | 18.1 µM (inactive) | 18.6 µM (inactive) | 11.9 µM (inactive) | 16.1 µM (inactive) | 14 µM (inactive) | 24.9 µM (inactive) | 21.7 µM (inactive) | 17.9 µM | 17.9 µM (inactive) | 18.9 µM (inactive) | 21.6 µM (inactive) | 18.3 µM (inactive) | 15.9 µM (inactive) | 16.6 µM (inactive)
